Biological target: T1, Collagenase from Clostridium histolyticum
T1 construct: gene colG; ColG / ColH not distinguished
Test: spectrophotometric FALGPA hydrolysis, […] nm
Format: biochemical
Settings: substrate FALGPA 0.8 mM; 50 mM tricine pH 7.5, 400 mM NaCl, 10 mM CaCl2; 15 min pre-incubation, room temperature

With CC1(C)CC[C@]2(C(=O)O)CC[C@]3(C)C(=CC[C@@H]4[C@@]5(C)CC[C@H](O)C(C)(C)[C@@H]5CC[C@]43C)[C@@H]2C1 [oleanolic acid] the “Standard Oleanolic Acid *” value was 25.66 ± 0.39 µg/mL.

Reference: paper PMC10221029, “Photoprotection and Antiaging Activity of Extracts from Honeybush (Cyclopia sp.)—In Vitro Wound Healing and Inhibition of the Skin Extracellular Matrix Enzymes: Tyrosinase, Collagenase, Elastase and Hyaluronidase” (Pharmaceutics, 2023)
